Type in all cases: in vivo
Data set [1] concerns mice. As to the kind of experiment: Residual lipid levels in the liver at 24 h, mice (luciferase mRNA LNPs).
Data set [2] deals with mice. The experiment in a line: Luciferase expression, total whole body flux, mice. On the procedure: (§1) To further assess potency of expression and metabolic stability of lipids of the disclosure, expression of luciferase was measured following administration to rodents of a nanoparticle of the disclosure comprising an mRNA containing luciferase.
Lipid nanoparticles including DSPC as a phospholipid, cholesterol as a structural lipid, Compound I as a PEG lipid, an ionizable amino lipid of Formula (II), and an mRNA encoding luciferase were intravenously administered to CD-1 mice and Sprague Dawley rats. […]

The test system of data set [3] is CD-1 mice. The experiment in a line: NPI-Luciferase expression, ex vivo liver bioluminescence, CD-1 mice. The conditions noted are these: mouse, IV. On the procedure:
as §1
(§2) Lipid nanoparticles including DSPC as a phospholipid, cholesterol as a structural lipid, Compound I as a PEG lipid, an ionizable amino lipid of Formula (II), and an mRNA encoding luciferase were intravenously administered to CD-1 mice and Sprague Dawley rats. The level of expression was tested via bioluminescence in the liver ex vivo at 6 hours after injection.

Data set [4] deals with CD-1 mice. As to the kind of experiment: hEPO expression in serum after IV lipid nanoparticles with hEPO mRNA, CD-1 mice. The settings on record: LNP with DSPC, cholesterol, Compound I; for Mean 6 hr hEPO Concentration: serum 6 hours after injection. On the procedure: To assess potency of expression and metabolic stability of lipids of the disclosure, hepatocyte protein expression (hEPO) was measured following administration to mice of a nanoparticle of the disclosure.
Lipid nanoparticles including DSPC as a phospholipid, cholesterol as a structural lipid, Compound I as a PEG lipid, an ionizable amino lipid of Formula (II), and an mRNA encoding hEPO were intravenously administered to CD-1 mice. The concentration of hEPO in serum was tested at 6 hours after injection.

For data set [5], the system named is Sprague Dawley rats. As to the kind of experiment: NPI-Luciferase expression, ex vivo liver bioluminescence, Sprague Dawley rats. The settings on record: rat, IV. On the procedure:
as §1, §2

The subject of data set [6] is Sprague Dawley rats. The experiment in a line: Parent lipid remaining in liver tissue at 24 h, rats. The settings on record: rat.
For data set [7], the system named is CD-1 mice. As to the kind of experiment: Parent lipid remaining in liver at 24 h, CD-1 mice (hEPO mRNA LNPs). The settings on record: for Approx. Percent Total Dose of Parent Lipid Remaining at 24 h: calculation assumes a 25 g mouse with a 1.5 g liver.
Data set [8] deals with Sprague Dawley rats. As to the kind of experiment: hEPO expression in serum after IV lipid nanoparticles with hEPO mRNA, Sprague Dawley rats. The conditions noted are these: serum 6 hours after injection. How it is done:
To further assess potency of expression and metabolic stability of lipids of the disclosure, hepatocyte protein expression (hEPO) was measured following administration to rats of a nanoparticle of the disclosure.
Lipid nanoparticles including DSPC as a phospholipid, cholesterol as a structural lipid, Compound I as a PEG lipid, an ionizable amino lipid of Formula (II), and an mRNA encoding hEPO were intravenously administered to Sprague Dawley rats. The concentration of hEPO in serum was tested at 6 hours after injection.

For the compound `CCCCCCCCC(CCCCCCCC)OC(=O)CCCCCCCN(CCO)CCCCCCCC(=O)OCCC(CCCCCC)C(C)C` (centres unmarked) [Compound 12], the “% Lipid Remaining @ 24 h” value in data set [1] is listed as less than 1%. The “Total Whole Body Flux @ 6 h” value in data set [2] came out at 2.39E+10 p/s.

Consider `CCCCCCCCC(CCCCCCCC)OC(=O)CCCCCCCN(CCO)CCCCCCCC(=O)OCCC(CCCCC)CCCCC` [Compound 24], for which the “Mean 6 h ex vivo Liver NPI-Luciferase Total Flux” value in data set [3] is on record as 240400000 photons/second. Moreover, in data set [4], the “hEPO AUC” value is on record as 1.93E+07 and the “Mean 6 hr hEPO Concentration” value is 1160499 mIU/mL. In data set [5], the “Mean 6 h ex vivo Liver NPI-Luciferase Total Flux” value stood at 2020000000 photons/second. For the same compound, in data set [6], the “Approx. Percent Total Dose of Parent Lipid Remaining at 24 h” value is 2%. Moreover, in data set [7], the “Parent Lipid Remaining (nmol/g liver tissue) at 24 h” value turned out to be 3 ± 1 nmol/g liver tissue and the “Approx. Percent Total Dose of Parent Lipid Remaining at 24 h” value was 2%.

For the compound `CCCCCCCCC(CCCCCCCC)OC(=O)CCCCCCCN(CCCCCCCC(=O)OCC(CCCC)CCCCCCC)CCCNc1c(NC)c(=O)c1=O` (centres unmarked) [Compound 10], the “% Lipid Remaining @ 24 h” value in data set [1] was determined as 67 ± 7%. Besides, the “Total Whole Body Flux @ 6 h” value in data set [2] came out at 4.6E+09 p/s.

For the compound `CCCCCCCCC(CCCCCCCC)OC(=O)CCCCCCCN(CCCCCCCC(=O)OCC(CC)CCCCCCC)CCCNc1c(NC)c(=O)c1=O` (centres unmarked) [Compound 11], the “% Lipid Remaining @ 24 h” value in data set [1] is given as 23 ± 6%. Also, the “Total Whole Body Flux @ 6 h” value in data set [2] turned out to be 1.04E+10 p/s.

On to `CCCCCCCCC(CCCCCCCC)COC(=O)CCCCCN(CCCCCCCC(=O)OC(CC)CCCCCCCC)CCCNc1c(NC)c(=O)c1=O` (centres unmarked) [Compound 14], for which the “Mean 6 h ex vivo Liver NPI-Luciferase Total Flux” value in data set [3] is recorded as 465200000 photons/second. For the same compound, in data set [4], the “hEPO AUC” value turned out to be 4.53E+07 and the “Mean 6 hr hEPO Concentration” value is 2952339 mIU/mL. Further, in data set [5], the “Mean 6 h ex vivo Liver NPI-Luciferase Total Flux” value is 1567000000 photons/second. Further, the “Approx. Percent Total Dose of Parent Lipid Remaining at 24 h” value in data set [6] is 58%. Further, in data set [7], the “Parent Lipid Remaining (nmol/g liver tissue) at 24 h” value was found to be 56 ± 6 nmol/g liver tissue and the “Approx. Percent Total Dose of Parent Lipid Remaining at 24 h” value is 58%.

On to `CCCCCCC(CCCCCC)OC(=O)CCCCCCCN(CCCCCCCC(=O)OCCC(CCC)CCC)CCCNc1c(NC)c(=O)c1=O` [Compound 64], for which, in data set [4], the “hEPO AUC” value turned out to be 2.43E+07 and the “Mean 6 hr hEPO Concentration” value is given as 1760015 mIU/mL. Besides, in data set [7], the “Parent Lipid Remaining (nmol/g liver tissue) at 24 h” value is listed as 4.9 ± 0.9 nmol/g liver tissue and the “Approx. Percent Total Dose of Parent Lipid Remaining at 24 h” value is given as 6 ± 0.8%. Besides, the “Mean 6 hr hEPO Concentration” value in data set [8] was 161146 mIU/mL.

`CCCCCC(CCCCC)OC(=O)CCCCCCCN(CCCCCCCC(=O)OCCC(CCCC)CCCC)CCCNc1c(NC)c(=O)c1=O` [Compound 61]: in data set [4], the “hEPO AUC” value turned out to be 1.44E+07 and the “Mean 6 hr hEPO Concentration” value is on record as 1020791 mIU/mL. In data set [7], the “Parent Lipid Remaining (nmol/g liver tissue) at 24 h” value was 5.1 ± 0.8 nmol/g liver tissue and the “Approx. Percent Total Dose of Parent Lipid Remaining at 24 h” value is 6 ± 0.3%. The “Mean 6 hr hEPO Concentration” value in data set [8] worked out at 362569 mIU/mL.

With `CCCCCCCCC(CCCCCCCC)OC(=O)CCCCCCCN(CCCCCCCC(=O)OCC(CCC)CCCCCCC)CCCNc1c(NC)c(=O)c1=O` (centres unmarked) [Compound 9], the “% Lipid Remaining @ 24 h” value in data set [1] was 68 ± 10%. Also, the “Total Whole Body Flux @ 6 h” value in data set [2] came to 1.82E+10 p/s.

As to `CCCCC(CCCC)CCOC(=O)CCCCCCCN(CCCCCCCC(=O)OCCC(CCC)CCC)CCCNc1c(NC)c(=O)c1=O` [Compound 52], in data set [4], the “hEPO AUC” value was 3.82E+06 and the “Mean 6 hr hEPO Concentration” value was determined as 564670 mIU/mL. In data set [7], the “Parent Lipid Remaining (nmol/g liver tissue) at 24 h” value is reported as less than 1 nmol/g liver tissue and the “Approx. Percent Total Dose of Parent Lipid Remaining at 24 h” value is recorded as less than 1%.

Take `CCCCCC(CCCCC)CCCOC(=O)CCCCCCCN(CCCCCCCC(=O)OCCCC(CCCCC)CCCCC)CCCNc1c(NC)c(=O)c1=O` [Compound 34]: in data set [4], the “hEPO AUC” value turned out to be 3.01E+06 and the “Mean 6 hr hEPO Concentration” value amounted to 205437 mIU/mL. Besides, in data set [7], the “Parent Lipid Remaining (nmol/g liver tissue) at 24 h” value is on record as 12 ± 2 nmol/g liver tissue and the “Approx. Percent Total Dose of Parent Lipid Remaining at 24 h” value was 12%.

`CCCCCCCCC(CCCCCCCC)OC(=O)CCCCCCCN(CCCCCCCC(=O)OCCC(CCC)CCCCCC)CCCNc1c(NC)c(=O)c1=O` (centres unmarked) [Compound 18]: the figures for the “Mean 6 h ex vivo Liver NPI-Luciferase Total Flux” value in data set [3] and in data set [5] were 372800000 photons/second and 1473333333 photons/second, respectively. In addition, the “hEPO AUC” value in data set [4] came to 3.17E+07. The “Mean 6 hr hEPO Concentration” value in data set [4] was found to be 2158772 mIU/mL. The “Approx. Percent Total Dose of Parent Lipid Remaining at 24 h” value in data set [6] and in data set [7] was 41% throughout. In addition, the “Parent Lipid Remaining (nmol/g liver tissue) at 24 h” value in data set [7] was determined as 40 ± 7 nmol/g liver tissue.

Regarding `CCCCCCCCC(CCCCCCCC)OC(=O)CCCCCCCN(CCO)CCCCCCCC(=O)OCCC(CCC)CCCCCC` (centres unmarked) [Compound 13], the “% Lipid Remaining @ 24 h” value in data set [1] was less than 1%. Besides, the “Total Whole Body Flux @ 6 h” value in data set [2] is on record as 3.77E+10 p/s.

With `CCCCCCCCC(CCCCCCCC)OC(=O)CCCCCCCN(CCO)CCCCCCCC(=O)OCCC1CCC(CC)CC1` (centres unmarked) [Compound 35], in data set [4], the “hEPO AUC” value came out at 1.72E+06 and the “Mean 6 hr hEPO Concentration” value is reported as 106485 mIU/mL. Besides, in data set [7], the “Parent Lipid Remaining (nmol/g liver tissue) at 24 h” value is listed as less than 0.1 nmol/g liver tissue and the “Approx. Percent Total Dose of Parent Lipid Remaining at 24 h” value is listed as less than 0.1%.

Take `CCCCC(CCCC)OC(=O)CCCCCCCN(CCCCCCCC(=O)OCCC(CCC)CCC)CCCNc1c(NC)c(=O)c1=O` [Compound 66]: in data set [4], the “hEPO AUC” value turned out to be 2.10E+05 and the “Mean 6 hr hEPO Concentration” value was determined as 17801 mIU/mL. In data set [7], the “Parent Lipid Remaining (nmol/g liver tissue) at 24 h” value amounted to 0.1 ± 0.03 nmol/g liver tissue and the “Approx. Percent Total Dose of Parent Lipid Remaining at 24 h” value is listed as less than 1%.

With `CCCCCC(CCCCC)CCOC(=O)CCCCCCCN(CCCCCCCC(=O)OC(CCCC)CCCC)CCCNc1c(NC)c(=O)c1=O` [Compound 58], in data set [4], the “hEPO AUC” value is listed as 2.33E+07 and the “Mean 6 hr hEPO Concentration” value stood at 1347883 mIU/mL. For the same compound, in data set [7], the “Parent Lipid Remaining (nmol/g liver tissue) at 24 h” value amounted to 15 ± 2 nmol/g liver tissue and the “Approx. Percent Total Dose of Parent Lipid Remaining at 24 h” value is reported as 15%.

As for `CCCCCCCCC(CCCCCCCC)OC(=O)CCCCCCCN(CCO)CCCCCCCC(=O)OCC(CCC)CCCCCCC` (centres unmarked) [Compound 8], in data set [1], the “% Lipid Remaining @ 24 h” value is less than 1%. In addition, the “Total Whole Body Flux @ 6 h” value in data set [2] is 3.82E+10 p/s.

For the compound `CCCCCCCCC(CCCCCCCC)OC(=O)CCCCCCCN(CCCCCCCC(=O)OCC(CCCCC)CCCCCCC)CCCNc1c(NC)c(=O)c1=O` (centres unmarked) [Compound 16], in data set [4], the “hEPO AUC” value was found to be 2.18E+07 and the “Mean 6 hr hEPO Concentration” value is reported as 1461176 mIU/mL. For the same compound, in data set [7], the “Parent Lipid Remaining (nmol/g liver tissue) at 24 h” value worked out at 77 ± 3 nmol/g liver tissue and the “Approx. Percent Total Dose of Parent Lipid Remaining at 24 h” value is reported as 79%.

Regarding `CCCCC(CCCC)CCOC(=O)CCCCCCCN(CCCCCCCC(=O)OC(CCCC)CCCC)CCCNc1c(NC)c(=O)c1=O` [Compound 62], in data set [4], the “hEPO AUC” value came to 6.51E+06 and the “Mean 6 hr hEPO Concentration” value is listed as 475498 mIU/mL. For the same compound, in data set [7], the “Parent Lipid Remaining (nmol/g liver tissue) at 24 h” value was found to be 1.8 ± 0.6 nmol/g liver tissue and the “Approx. Percent Total Dose of Parent Lipid Remaining at 24 h” value is on record as 2 ± 0.9%.

Regarding `CCCCCCCCC(CCCCCCCC)OC(=O)CCCCCCCN(CCO)CCCCCCCC(=O)OCCC(CCCC)CCCCCC` (centres unmarked) [Compound 7], in data set [4], the “hEPO AUC” value came out at 2.13E+07 and the “Mean 6 hr hEPO Concentration” value is given as 1355957 mIU/mL. Also, in data set [1], the “% Lipid Remaining @ 24 h” value was less than 1%. Also, in data set [7], the “Parent Lipid Remaining (nmol/g liver tissue) at 24 h” value is on record as 0.3 ± 0.2 nmol/g liver tissue and the “Approx. Percent Total Dose of Parent Lipid Remaining at 24 h” value is listed as 0.2%. Also, the “Total Whole Body Flux @ 6 h” value in data set [2] is listed as 6.09E+10 p/s.

Values taken from US20240189449A1, “LIPID NANOPARTICLES AND POLYNUCLEOTIDES ENCODING ORNITHINE TRANSCARBAMYLASE FOR THE TREATMENT OF ORNITHINE TRANSCARBAMYLASE DEFICIENCY” (ModernaTX, Inc., priority 2021, published 2024).
